This note sets out measurements from patent EP4606376A1 (ShanghaiTech University, priority 2022, dated 2024).

One test relates to SARS-CoV-2 Delta. As to the kind of experiment: microbe, parasite or virus in culture. As to conditions: Severe acute respiratory syndrome coronavirus 2, 24 h. The class given is cell-based.
In the next test the target is Cathepsin L (Homo sapiens, UniProt P07711). The test can be described thus: In vitro enzyme activity inhibition assay (Cathepsin L, substrate Cbz-Phe-Arg-AMC). The class given is biochemical. As to conditions: cross-validation; FIG. 2A.
A further test deals with TMPRSS2 (Homo sapiens, UniProt O15393). The test can be described thus: In vitro enzyme activity inhibition assay (TMPRSS2, substrate Boc-Gln-Ala-Arg-AMC). Conditions: cross-validation; FIG. 2B.
Chain of TMPRSS2 (O15393 whole entry): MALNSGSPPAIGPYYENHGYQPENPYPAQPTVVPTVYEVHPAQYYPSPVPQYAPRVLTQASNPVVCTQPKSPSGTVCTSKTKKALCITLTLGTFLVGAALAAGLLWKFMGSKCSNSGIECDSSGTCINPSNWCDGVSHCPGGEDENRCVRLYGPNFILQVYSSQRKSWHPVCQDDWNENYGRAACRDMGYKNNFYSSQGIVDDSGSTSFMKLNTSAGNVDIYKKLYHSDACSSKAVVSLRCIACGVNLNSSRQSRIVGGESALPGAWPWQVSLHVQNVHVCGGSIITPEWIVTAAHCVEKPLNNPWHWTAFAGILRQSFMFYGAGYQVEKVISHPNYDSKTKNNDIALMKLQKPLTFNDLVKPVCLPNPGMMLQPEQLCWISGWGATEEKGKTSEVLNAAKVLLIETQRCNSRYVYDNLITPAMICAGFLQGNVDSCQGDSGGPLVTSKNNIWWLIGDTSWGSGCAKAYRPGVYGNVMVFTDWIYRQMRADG

Chain of Cathepsin L (P07711 114-333): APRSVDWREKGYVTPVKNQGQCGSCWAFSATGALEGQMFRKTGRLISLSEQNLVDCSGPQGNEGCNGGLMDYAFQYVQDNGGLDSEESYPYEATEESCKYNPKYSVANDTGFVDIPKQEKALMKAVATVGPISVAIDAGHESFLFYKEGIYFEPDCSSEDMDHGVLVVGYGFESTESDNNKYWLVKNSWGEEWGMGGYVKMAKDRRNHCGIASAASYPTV
Method for Cathepsin L: (§1) Columns 15 to 20 were added with an equivalent volume of DMSO as a positive control group, and columns 18 to 20 were added with an equivalent volume of buffer as a negative control group. […] The 384-well plate was placed in a microplate reader for detection, and the slope of fluorescence intensity increase in the first 2 minutes of the enzymatic reaction was taken as the activity of the protein for subsequent calculation.
Method for TMPRSS2: as §1

For `N=C(N)Nc1ccc(C(=O)Oc2ccc3cc(C(=N)N)ccc3c2)cc1` [Nafamostat], in the test with SARS-CoV-2 Delta, the midpoint of the response, the EC50, lay at 20 nM. For the same molecule, at Cathepsin L, the “inhibitory activity against Cathepsin L” value is reported as “no inhibitory activity”.
With `CN1CCN(C(=O)N[C@@H](Cc2ccccc2)C(=O)N[C@H](/C=C/S(=O)(=O)c2ccccc2)CCc2ccccc2)CC1` [K777], in the test with SARS-CoV-2 Delta ([…], combination at a molar ratio of 1:1, FIG. 3), the EC50 (usually the concentration that produces a half-maximal response) was 660 nM. Moreover, at TMPRSS2, the “inhibitory activity against TMPRSS2” value is “no inhibitory activity”.
